Results: patent EP0292365A2, “4-Amino-5,8-quinazolindione derivatives, process for their preparation and pharmaceutical compositions containing them” (CENTRE NATIONAL DE LA RECHERCHE SCIENTIFIQUE, priority 1987, dated 1988)
Where two headings read alike, the source gives them in different places.

Assays:
cellules de lignée HBL = experiment: Effect on in vitro cell growth, HBL line (Feulgen staining, automated scanning microscopy); type: cell-based, humaine; conditions: for nombre de cellules observées par champ de microscope: HBL
Experimental: Les cellules tumorales en croissance exponentielle sont ensemencées (10.000 cellules/ml) dans des boîtes à Petri contenant au fond de la boîte un couvre-objet (18 x 18 mm) et 3 ml de MEM (MEM = milieu essentiel minimum) + 5 % FCS (FCS = serum de veau fetal) (v/v). Après 24 heures d'incubation, quand les cellules sont bien attachées au fond de la boîte, le milieu est remplacé par MEM expérimental contenant 5 % FCS (v/v) et enrichi, par exemple de : • a) 3 ml du milieu (MEM + 5 % FCS) = témoins • b) 3 ml du milieu contenant une dose élevée du composé à tester : 10 µg/ml : (M) • c) milieu contenant une faible dose du composé à tester : 0.01 µg/ml (f) respectivement aux jours 1, 2, 3 et 4 après addition du milieu expérimental dans les boîtes de Petri. Trois couvre-objets sont fixés pour chaque condition expérimentale : éthanol 95° (75 v), formol neutre à 40 % (20 v), acide acétique (5 v), pendant 10 minutes. Les cellules témoins cultivées dans le milieu expérimental sans le produit à tester sont fixées au même moment. A la fin de la fixation, les couvre-objets sont retournés et montés sur des lames histologiques à l'aide de produit commercialisé sous la marque DPX par la Société British Drug House et conservés à l'abri de la lumière et à 4° en attendant d'être colorés.
Les lames avec les couvre-objets sont colorées par une réaction de Feulgen modifiée. Toutes les lames d'une condition expérimentale sont conditionnées par le réactif de Feulgen en même temps, pendant une heure, après hydrolyse dans un milieu HCI 6N pendant une heure à 20° C. Les préparations cellulaires sont ensuite conservées à l'abri de la lumière et à 4°C en attendant l'analyse.
Grâce à un système d'analyse microscopique à balayage automatique, on détermine l'effet de la drogue sur la croissance cellulaire, au cours du temps, sur deux lignées cellulaires tumorales d'origine humaine : la lignée MCF-7 d'origine mammaire et la lignée HBL (mélanome malin).
On a représenté dans le tableau C les résultats relatifs à l'action du composé 63 sur la croissance des cellules de lignée MCF-7 et dans le tableau C BIS, les résultats relatifs à l'action du composé 63 sur la croissance des cellules de lignée HBL. Ces résultats montrent le nombre de cellules survivant au traitement après 1, 2, 3 et 4 jours d'incubation et à trois doses différentes (10 µg/ml, 1 µg/ml et 0,1 µg/ml).
Chaque chiffre correspond au nombre de cellules observées par champ de microscope.

Leucémie P388 = type: in vivo, souris DBA/2; conditions: for survivants 30 jours / Δ P J1-J5 / T/C / Doses actives (T/C ≥ 125 %): P388; for T/C: survivants inclus; for activité antitumorale sur la leucémie P388: summary
Description: Afin de tester l'activité antitumorale des composés décrits plus haut, on a utilisé les leucémies murines P388 et L1210, ainsi que le mélanome murin B16. La leucémie P388 est considère comme très sensible et permet une première sélection. D'autre part, une substance ayant une grande activité sur la leucémie L1210 a une grande chance d'être active en clinique humaine (J.M. Venditti; Relevance of transplantable animal tumor systems to the Selection of new agents for clinical trial in pharmacological basis of cancer chemotherapy. The University of Texas ed. Williams and Wilkins, publ. 1975, Baltimore USA).
Cette étude a été réalisée sur 1, 2 ou 3 tumeurs murines expérimentales selon le schéma suivant :
Les produits en solution dans l'eau ou en suspension dans du Klucel sont administrés par voie intrapéritonéale 24 heures après la greffe des cellules tumorales (10 animaux par série), soit en injection unique (J1), soit pendant 9 jours consécutifs (Ji-9). Les morts sont relevés chaque jour à la même heure. La comparaison du temps médian de survie des souris témoins (C) et des souris traitées (T) permet d'apprécier l'activité antitumorale du produit. On adopte comme critère d'activité minimale la valeur de T/C supérieure ou égale à 125 % conformément aux critères établis par GERAN et par l'O.M.S. (Réf. GERAN R.I., GREENBERG N.H., MACDONALD M.M., SCHUMACHER A.M. and ABBOTT B.J. Protocols for screening chemical agents and natural products against animal tumors and other biological systems. Cancer Chemother. Rep. Part 3, 3, 1-103 (1972)).
Lorsque le composé est actif sur plusieurs tumeurs, son administration par d'autres voies que la voie intrapéritonéale (i.p.) est envisagée : orale (p.o) et intraveineuse (i.v). Les résultats des essais effectués à l'aide du composé 63 sont rassemblés dans le tableau IV ci-après.
Les résultats des essais effectués à l'aide des composés de l'invention n° 57 et 59 sont rassemblés dans le tableau IV Bis ci-après.
Dans les tableaux IV et IV Bis, P représentent la variation de poids entre J1 et J5 des animaux traités; lorsque P est supérieure à environ 4 g, cela signifie que la dose à laquelle le composé a été testé est toxique.

[1] = greffe ip(10^6cel.), ip J1-9, dose optimale 0,4 mg/kg/inj.
[2] = greffe ip(10^6cel.), ip J1, dose 1,25 mg/kg/inj.
[3] = greffe ip(10^6cel.), ip J1, dose optimale 3 mg/kg/inj.
[4] = greffe ip(10^6cel.), iv J1, dose 1,25 mg/kg/inj. (2 doses testées)
[5] = greffe ip(10^6cel.), po J1, dose optimale 30 mg/kg/inj.
[6] = greffe iv(10^5cel.), iv J1, dose 1,25 mg/kg/inj. (1 seule dose testée)

SMILES: CN(C)CCCNc1ncnc2c1C(=O)C(N1CC1)=C(N1CC1)C2=O [composé 63]
- nombre de cellules observées par champ de microscope (cellules de lignée HBL; 0.1µg/ml (f), 1j): 402±100 ns
- nombre de cellules observées par champ de microscope (cellules de lignée HBL; 0.1µg/ml (f), 2j): 233± 36
- nombre de cellules observées par champ de microscope (cellules de lignée HBL; 0.1µg/ml (f), 3j): 633± 83 ns
- nombre de cellules observées par champ de microscope (cellules de lignée HBL; 0.1µg/ml (f), 4j): 474±265 ns
- nombre de cellules observées par champ de microscope (cellules de lignée HBL; 1µg/ml (M), 1j): 282± 17 ns
- nombre de cellules observées par champ de microscope (cellules de lignée HBL; 1µg/ml (M), 2j): 187± 35
- nombre de cellules observées par champ de microscope (cellules de lignée HBL; 1µg/ml (M), 3j): 199± 71
- nombre de cellules observées par champ de microscope (cellules de lignée HBL; 1µg/ml (M), 4j): 197± 67
- nombre de cellules observées par champ de microscope (cellules de lignée HBL; 10µg/ml (F), 1j): 318± 83 ns
- nombre de cellules observées par champ de microscope (cellules de lignée HBL; 10µg/ml (F), 2j): 166± 28
- nombre de cellules observées par champ de microscope (cellules de lignée HBL; 10µg/ml (F), 3j): 553±100 ns
- nombre de cellules observées par champ de microscope (cellules de lignée HBL; 10µg/ml (F), 4j): 210± 48
- croissance des cellules HBL (cellules de lignée HBL; à moyenne et forte dose, summary of tableau C BIS): ralentit faiblement la croissance
- survivants 30 jours (Leucémie P388; [1]): 0
- Δ P J1-J5 (Leucémie P388; [1]): -2,1 g
- T/C (Leucémie P388; [1]): 222%
- survivants 30 jours (Leucémie P388; [2]): 1
- Δ P J1-J5 (Leucémie P388; [2]): -1,7 g
- T/C (Leucémie P388; [2]): 174%
- survivants 30 jours (Leucémie P388; [3]): 0
- Δ P J1-J5 (Leucémie P388; [3]): -2,0 g
- T/C (Leucémie P388; [3]): 188%
- survivants 30 jours (Leucémie P388; [4]): 0
- Δ P J1-J5 (Leucémie P388; [4]): -0,7 g
- T/C (Leucémie P388; [4]): 136%
- survivants 30 jours (Leucémie P388; [5]): 0
- Δ P J1-J5 (Leucémie P388; [5]): -4,7 g
- T/C (Leucémie P388; [5]): 140%
- Doses actives (T/C ≥ 125 %) (Leucémie P388; greffe ip(10^6cel.), traitement ip J1): 0,1-3 mg/kg/inj.
- Doses actives (T/C ≥ 125 %) (Leucémie P388; greffe ip(10^6cel.), traitement ip J1-9): 0,017-0,8 mg/kg/inj.
- Doses actives (T/C ≥ 125 %) (Leucémie P388; greffe ip(10^6cel.), traitement po J1): 20-30 mg/kg/inj.
- survivants 30 jours (Leucémie P388; [6]): 0
- Δ P J1-J5 (Leucémie P388; [6]): -0,1 g
- T/C (Leucémie P388; [6]): 147%
- activité antitumorale sur la leucémie P388 (Leucémie P388; par voie orale et par voie intraveineuse): reste actif
- activité antitumorale sur la leucémie P388 (Leucémie P388; voie intrapéritonéale): excellente activité antitumorale
